Consider 13 compounds from US8952014B2, “Pyrimidine derivatives which are CGRP—antagonists” (Boehringer Ingelheim International GmbH, priority 2008, dated 2015).

T1 sequence (Q16602 23-461): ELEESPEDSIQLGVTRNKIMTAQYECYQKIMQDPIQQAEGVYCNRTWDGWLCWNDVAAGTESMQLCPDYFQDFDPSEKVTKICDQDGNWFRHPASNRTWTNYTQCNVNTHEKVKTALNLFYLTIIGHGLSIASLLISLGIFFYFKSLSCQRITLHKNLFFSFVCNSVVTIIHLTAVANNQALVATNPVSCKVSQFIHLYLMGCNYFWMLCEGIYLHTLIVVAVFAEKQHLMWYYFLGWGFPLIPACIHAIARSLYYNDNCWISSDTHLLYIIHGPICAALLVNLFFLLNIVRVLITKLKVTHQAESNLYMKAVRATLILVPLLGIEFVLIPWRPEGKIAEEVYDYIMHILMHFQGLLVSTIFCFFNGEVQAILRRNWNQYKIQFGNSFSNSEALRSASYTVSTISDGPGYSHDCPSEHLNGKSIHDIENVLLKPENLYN
T1 sequence (O60894 27-148): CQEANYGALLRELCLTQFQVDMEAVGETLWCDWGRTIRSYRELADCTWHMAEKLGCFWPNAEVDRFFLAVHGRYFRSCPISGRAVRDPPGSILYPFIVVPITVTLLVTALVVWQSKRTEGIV

This assay has as its target T1, human CGRP receptor (Homo sapiens, UniProt O60894+Q16602).
T1 construct: SK-N-MC membranes (˜20 μg protein) are incubated for 180 minutes at ambient temperature; endogenous in cells; host or cells: SK-N-MC cells (membranes)
The assay can be described thus: Binding studies with SK-N-MC cells (125I-CGRP displacement from membranes). The settings on record: 50 pM 125I-iodotyrosyl-CGRP, 180 min, ambient temperature. The procedure:
A. Binding Studies with SK-N-MC Cells (Expressing the Human CGRP Receptor)
SK-N-MC membranes (˜20 μg protein) are incubated for 180 minutes at ambient temperature with 50 pM ^125I-iodotyrosyl-Calcitonin-Gene-Related Peptide and increasing concentrations of the test substances in a total volume of 250 μl (assay buffer: 10 mM tris, 50 mM NaCl, 5 mM MgCl2, 1 mM EDTA, pH=7.4). The incubation is ended by rapid filtration through GF/B-glass fibre filters treated with polyethyleneimine (0.1%) using a cell harvester. The protein-bound radioactivity is measured using a gamma counter. Non-specific binding is defined as the bound radioactivity after the presence of 1 μM BIBN4096BS during incubation.
The concentration binding curves are analysed using computer-aided non-linear curve fitting.
In turn, `COCCc1nc2c(C)cc(Oc3cc(N4CCC5(CC4)OC(=O)Nc4ncccc45)ncn3)cc2[nH]1` [(66)] showed a Ki of 6 nM.

Consider `COc1ccc2c(c1)CCN(C1CCN(c3cc(Nc4cc(C)c5[nH]c(=O)oc5c4)ncn3)CC1)C(=O)N2` [(7)], for which the Ki was 5 nM.

With `COc1ccc2c(c1)CCN(C1CCN(c3cc(Oc4cc(C)c5nc(CC6CC6)[nH]c5c4)ncn3)CC1)C(=O)N2` [(33)], the affinity corresponds to a Ki of 8 nM.

Compound `COc1nc2cc(Oc3cc(N4CCC5(CC4)OC(=O)Nc4ncccc45)ncn3)cc(C)c2[nH]1` [(67)] came in with a Ki of 6 nM.

As to `COc1ccc2c(c1)CCN(C1CCN(c3cc(Oc4cc(C(F)(F)F)c5nc(C)[nH]c5c4)ncn3)CC1)C(=O)N2` [(79)], the affinity corresponds to a Ki of 11 nM.

Compound `COc1ccc2c(c1)CCN(C1CCN(c3cc(Oc4cc(C)c5[nH]c(=O)oc5c4)nc(OC)n3)CC1)C(=O)N2` [(40)] registered a Ki of 8 nM.

As for `Cc1cc(Oc2cc(N3CCC4(CC3)OC(=O)Nc3ncccc34)ncn2)cc2c1NC(=O)CO2` [(69)], the affinity, expressed as Ki, was 4 nM.

In turn, `COc1ccc2c(c1)CCN(C1CCN(c3cc(Oc4cc(C)c5[nH]c(=O)oc5c4)ncn3)CC1)C(=O)N2` [(1)] returned a Ki of 2 nM.

For `Cc1nc(Oc2cc(C)c3[nH]c(=O)oc3c2)cc(N2CCC3(CC2)C(=O)Nc2ncccc23)n1` [(77)], affinity was put at a Ki of 21 nM.

Compound `Cc1cc(Oc2cc(N3CCC(n4c(=O)[nH]c5ncccc54)CC3)ncn2)cc2[nH]c([C@@H]3CCCO3)nc12` [(52)] registered a Ki of 27 nM.

With `Cc1cc(Oc2cc(N3CCC4(CC3)OC(=O)Nc3ncccc34)ncn2)cc2[nH]c([C@@H]3CCCO3)nc12` [(54)], the affinity corresponds to a Ki of 2 nM.

On to `Cc1cc(Oc2cc(N3CCC4(CC3)OC(=O)Nc3ncccc34)ncn2)cc2cn[nH]c12` [(68)], for which the affinity corresponds to a Ki of 4 nM.

`Cc1cc(Oc2cc(N3CCC4(CC3)OC(=O)Nc3ncccc34)ncn2)cc2nc(C3CCOC3)[nH]c12` (stereo not shown) [(58)] gave a Ki of 2 nM.

By Ki is commonly meant the equilibrium dissociation constant of an inhibitor or competing ligand from its target.
